From ChEMBL document CHEMBL2407072 (Eur J Med Chem, 2013)

Legend:
Carbonic anhydrase 9 = Carbonic anhydrase 9 (Homo sapiens, UniProt Q16790); experiment: Inhibition of human recombinant CA9 using 4-nitrophenylacetate as substrate preincubated for 15 mins by stopped-flow CO2 hydration assay
B16-F10 = experiment: cells; settings: Mus musculus, B16-F10, 48 h
Description: Cytotoxicity against mouse B16F10 cells after 48 hrs by CCK8 assay

MCF7 = settings: Homo sapiens, MCF7, 48 h
[1] = Cytotoxicity against human macrophages assessed as microscopically detectable alteration of normal cell morphology after 48 hrs […]; format: cell-based; settings: macrophage
A549 [2] = experiment: Induction of apoptosis in human A549 cells assessed as early apoptotic cells at 10 ug/ml after 48 hrs using propidium iodide staining by FACS assay; format: functional
A549 [3] = experiment: Induction of apoptosis in human A549 cells assessed as necrotic cells at 10 ug/ml after 48 hrs using propidium iodide staining by FACS assay; format: functional
A549 [4] = experiment: Induction of apoptosis in human A549 cells assessed as early apoptotic cells at 40 ug/ml after 48 hrs using propidium iodide staining by FACS assay; format: functional
A549 [5] = experiment: Induction of apoptosis in human A549 cells assessed as late apoptotic cells at 2.5 ug/ml after 48 hrs using propidium iodide staining by FACS assay; format: functional
A549 [6] = experiment: Induction of apoptosis in human A549 cells assessed as late apoptotic cells at 160 ug/ml after 48 hrs using propidium iodide staining by FACS assay; format: functional
A549 [7] = experiment: Induction of apoptosis in human A549 cells assessed as early apoptotic cells at 2.5 ug/ml after 48 hrs using propidium iodide staining by FACS assay; format: functional
A549 [8] = experiment: Induction of apoptosis in human A549 cells assessed as necrotic cells at 40 ug/ml after 48 hrs using propidium iodide staining by FACS assay; format: functional
A549 [9] = experiment: Induction of apoptosis in human A549 cells assessed as viable cells at 40 ug/ml after 48 hrs using propidium iodide staining by FACS assay; format: functional; settings: A549, 48 h, read-out: Activity
A549 [10] = experiment: Induction of apoptosis in human A549 cells assessed as early apoptotic cells at 160 ug/ml after 48 hrs using propidium iodide staining by FACS assay; format: functional
A549 [11] = experiment: Induction of apoptosis in human A549 cells assessed as necrotic cells at 160 ug/ml after 48 hrs using propidium iodide staining by FACS assay; format: functional
A549 [12] = experiment: Induction of apoptosis in human A549 cells assessed as necrotic cells at 2.5 ug/ml after 48 hrs using propidium iodide staining by FACS assay; format: functional
A549 [13] = experiment: Induction of apoptosis in human A549 cells assessed as viable cells at 10 ug/ml after 48 hrs using propidium iodide staining by FACS assay; format: functional; settings: A549, 48 h, read-out: Activity
A549 [14] = experiment: Induction of apoptosis in human A549 cells assessed as viable cells at 160 ug/ml after 48 hrs using propidium iodide staining by FACS assay; format: functional; settings: A549, 48 h, read-out: Activity
A549 [15] = experiment: Induction of apoptosis in human A549 cells assessed as late apoptotic cells at 40 ug/ml after 48 hrs using propidium iodide staining by FACS assay; format: functional
A549 [16] = experiment: Induction of apoptosis in human A549 cells assessed as viable cells at 2.5 ug/ml after 48 hrs using propidium iodide staining by FACS assay; format: functional; settings: A549, 48 h, read-out: Activity
A549 [17] = experiment: Induction of apoptosis in human A549 cells assessed as late apoptotic cells at 10 ug/ml after 48 hrs using propidium iodide staining by FACS assay; format: functional

Compound | IC50 (Carbonic anhydrase 9) [nM] | IC50 (B16-F10) [nM] | IC50 (MCF7) [nM] | MCC [1] [µmol] | also measured
Cc1ccc2oc(=O)c(/C=N/c3ccc(S(=O)(=O)Nc4cc(C)on4)cc3)c(Cl)c2c1 | 52 | 250 | 16 | – | –
Cc1cc(C)nc(NS(=O)(=O)c2ccc(/N=C/c3c(Cl)c4cc(C(C)(C)C)cc(C(C)(C)C)c4oc3=O)cc2)n1 | 90 | 220 | 8.8 | 0.73 | –
CC(C)(C)c1cc(C(C)(C)C)c2oc(=O)c(/C=N/c3ccc(S(=O)(=O)NC(=N)N)cc3)c(Cl)c2c1 | 74 | 250 | 18 | – | –
Cc1ccc2oc(=O)c(/C=N/c3ccc(S(=O)(=O)Nc4nccc(C)n4)cc3)c(Cl)c2c1 | 48 | 270 | 61 | 0.56 | –
Cc1ccc2oc(=O)c(/C=N/c3ccc(S(=O)(=O)Nc4nccs4)cc3)c(Cl)c2c1 | 87 | 280 | 33 | – | –
Cc1ccc2oc(=O)c(/C=N/c3ccc(S(=O)(=O)NC(=N)N)cc3)c(Cl)c2c1 | 50 | 240 | 67 | – | –
Cc1ccnc(NS(=O)(=O)c2ccc(/N=C/c3c(Cl)c4cc(C(C)(C)C)cc(C(C)(C)C)c4oc3=O)cc2)n1 | 24 | 190 | 32 | 0.36 | –
Cc1cc(C)nc(NS(=O)(=O)c2ccc(/N=C/c3c(Cl)c4ccccc4oc3=O)cc2)n1 | 124 | 170 | 20 | – | Activity (A549 [2]): 5.09%; Activity (A549 [3]): 1.58%; Activity (A549 [4]): 6.54%; Activity (A549 [5]): 19.6%; Activity (A549 [6]): 9.62%; Activity (A549 [7]): 6.8%; Activity (A549 [8]): 2.04%; viability at 40 µg/mL (A549 [9]): 85.1%; Activity (A549 [10]): 9.24%; Activity (A549 [11]): 8.99%; Activity (A549 [12]): 4.14%; viability at 10 µg/mL (A549 [13]): 81.2%; viability at 160 µg/mL (A549 [14]): 72.2%; Activity (A549 [15]): 6.28%; viability at 2.5 µg/mL (A549 [16]): 69.4%; Activity (A549 [17]): 12.1%
Cc1ccc2oc(=O)c(/C=N/c3ccc(S(N)(=O)=O)cc3)c(Cl)c2c1 | 85 | 360 | 270 | 1.2 | –
Cc1cc(NS(=O)(=O)c2ccc(/N=C/c3c(Cl)c4ccccc4oc3=O)cc2)no1 | 141 | 270 | 12 | 0.42 | –

More lines, main results first:

IC50 (Carbonic anhydrase 9) [nM] | IC50 (B16-F10) [nM] | IC50 (MCF7) [nM] | Compound | MCC [1] [µmol] | also measured
67 | 300 | 25 | Cc1ccc2oc(=O)c(/C=N/c3ccc(S(=O)(=O)Nc4nc(C)cc(C)n4)cc3)c(Cl)c2c1 | – | –
84 | 230 | 31 | Cc1ccnc(NS(=O)(=O)c2ccc(/N=C/c3c(Cl)c4ccccc4oc3=O)cc2)n1 | – | –
– | 72 | – | COc1cccc2c1C(=O)c1c(O)c3c(c(O)c1C2=O)C[C@@](O)(C(=O)CO)C[C@@H]3O[C@H]1C[C@H](N)[C@H](O)[C@H](C)O1 [DOXORUBICIN] | – | –
43 | 240 | 64 | Cc1cc(NS(=O)(=O)c2ccc(/N=C/c3c(Cl)c4cc(C(C)(C)C)cc(C(C)(C)C)c4oc3=O)cc2)no1 | – | –
188 | 180 | 58 | N=C(N)NS(=O)(=O)c1ccc(/N=C/c2c(Cl)c3ccccc3oc2=O)cc1 | 0.62 | –
91 | 300 | 120 | NS(=O)(=O)c1ccc(/N=C/c2c(Cl)c3ccccc3oc2=O)cc1 | 0.58 | –
51 | 160 | 12 | CC(C)(C)c1cc(C(C)(C)C)c2oc(=O)c(/C=N/c3ccc(S(=O)(=O)Nc4nccs4)cc3)c(Cl)c2c1 | – | –
138 | 300 | 160 | O=c1oc2ccccc2c(Cl)c1/C=N/c1ccc(S(=O)(=O)Nc2nccs2)cc1 | – | –
34 | 240 | 16 | CC(C)(C)c1cc(C(C)(C)C)c2oc(=O)c(/C=N/c3ccc(S(N)(=O)=O)cc3)c(Cl)c2c1 | 0.58 | –
